According to PMC4364612:
Like-named read-outs stand apart in the source and are kept apart here. Ends that are not written are not given here. Peptide text beside a SMILES is read from it. * marks the point of attachment. Cbz = O=C(OCc1ccccc1)*

Key:
[1] = test system: immature DCs presenting to epitope-specific CTL clones; test: ELISPOT cross-presentation assay with immature DCs; type: cell-based, Human; conditions: IFN-gamma ELISPOT, n≥5 donors; for change of B57-KF11 cross-presentation (CTL response) upon inhibitor pretreatment, increase: immature DCs pre-incubated 45 minutes with 10μM MG132, 5μM E64 or epoxomicin before p24 protein; for change of B57-ISW9 cross-presentation (CTL response) upon inhibitor pretreatment, increase: immature DCs pre-incubated 45 minutes with 10μM MG132 or 5μM E64 before p24 protein
Method: (§1) Human peripheral blood mononuclear cells (PBMCs) were isolated by Ficoll-Hypaque (Sigma-Aldrich) density centrifugation. Monocytes were enriched using CD14+ magnetic isolation kits (StemCell) and differentiated into DCs and Møs during a 6-day culture. DCs were cultured in AIM-V media with 1% human serum AB (Gemini Bio-Products) supplemented with 20ng/mL IL-4 and 10ng/mL GM-CSF (CellGenix). On days 2 and 4, fresh IL-4 and GM-CSF were added. Møs were cultured in ultra low attachment plates (Corning) in AIM-V media with 10% human serum AB. Where indicated, maturation of DCs and Møs was induced by TLR ligand stimulation with 2μg/mL LPS, 1μg/mL CL097, or 1μg/mL R848 (Invivogen) for 2 days. Epitope-specific CTL clones were maintained in the presence of 50U/mL IL-2, using 0.1μg/mL CD3-specific mAb 12F6, and irradiated feeder cells as stimulus for T cell proliferation.
(§2) Immature DCs and Møs were exposed to recombinant HIV-1 p24-protein, HIV-1 p55-protein or control protein (Protein Sciences Corporation, USA) for 1hr at 37°C. Where indicated, cells were pre-incubated for 45 minutes with inhibitors for proteasome (10μM MG132 (Enzo Life Sciences)) or cysteine proteases (5μM E64 (Sigma-Aldrich)). Cells pulsed with equivalent molar concentrations of the optimal epitopes were used as controls for antigen presentation and CTL clone specificity. DCs and Møs were thoroughly washed and cultured overnight with epitope-specific CTL clones at a 2:1 effector-to-target ratio in 96-well plates (Millipore) coated with anti-IFN-y mAb 1-D1K (Mabtech). ELISPOT plates were washed and developed as described previously.

[2] = test system: immature Møs presenting to epitope-specific CTL clones; test: ELISPOT cross-presentation assay with immature Møs; type: cell-based, Human; conditions: IFN-gamma ELISPOT, n≥5 donors; for change of B57-KF11 CTL responses upon inhibitor pretreatment, decrease / change of B57-TW10 CTL responses upon inhibitor pretreatment, decrease: immature Møs pre-incubated with 10μM MG132, epoxomicin or 5μM E64 before p24 protein; for change of B57-ISW9 cross-presentation upon inhibitor pretreatment: immature Møs pre-incubated 45 minutes with 10μM MG132 or 5μM E64 before p24 protein
Method: as §1, §2

[3] = Intracellular stability of optimal epitopes, immature DC extracts; type: in vitro ADME, Human; conditions: RP-HPLC; for stability rate at pH4.0 relative to pH7.4: immature DC extract, pH4.0, 37°C, 60-minute incubation, three independent experiments; for half-life: human, cells or culture medium, 1nmol peptide, 15μg immature DC whole cell extract, aliquots 0, 10, 30, 60 minutes, one-phase exponential decay
Method: The proteolytic activities of cathepsin S (cell, 50μM; extracts, 10μM Z-VVR-AMC), omni cathepsins (cell, 50μM; extracts, 50μM Z-FR-AMC), cathepsin D&E (extracts, 10μM Mca-[…]-Dnp, Enzo Life Sciences), and cathepsin B (extracts, 50μM Z-RR-AMC, Bachem) were measured by cleavage of peptide-specific fluorogenic substrates. […] For cell extracts, equivalent amounts as determined by total protein concentration were used in reaction buffer (50mM sodium chloride, 50mM potassium phosphate, 2mM DTT, 2mM EDTA; pH 7.4, pH5.5 or pH4.0, respectively). The rate of fluorescence emission, which is proportional to the proteolytic activity, was measured every 5 minutes at 37°C in a Victor-3 Plate Reader (Perkin Elmer).
One nmol of highly purified peptide was degraded in 15μg of whole cell extracts at 37°C in degradation buffer at pH7.4 or pH4.0 [37]. Aliquots were taken at 0, 10, 30, and 60 minutes, and the reaction was stopped with 2.5μL of 100% TFA. The remaining peptide at each time point was quantified by reversed-phase HPLC (RP-HPLC; Waters). 100% represents the amount of peptide detected at time point 0 calculated as the area under the peptide peak. A stability rate of each peptide was calculated by a nonlinear regression (one-phase exponential decay) of the degradation profile obtained over a 60-minute incubation. Peptides incubated in buffer without cell extracts were used as controls.

[4] = Intracellular stability of optimal epitopes, DC and Mø extracts; type: in vitro ADME, Human; conditions: 37°C
Method: One nmol of highly purified peptide was degraded in 15μg of whole cell extracts at 37°C in degradation buffer at pH7.4 or pH4.0 [37]. Aliquots were taken at 0, 10, 30, and 60 minutes, and the reaction was stopped with 2.5μL of 100% TFA. The remaining peptide at each time point was quantified by reversed-phase HPLC (RP-HPLC; Waters). 100% represents the amount of peptide detected at time point 0 calculated as the area under the peptide peak. A stability rate of each peptide was calculated by a nonlinear regression (one-phase exponential decay) of the degradation profile obtained over a 60-minute incubation [35, 44]. Peptides incubated in buffer without cell extracts were used as controls.

[5] = In vitro peptide degradation assay with mass spectrometry, immature DC extracts; type: in vitro ADME, Human; conditions: immature DC whole cell extracts, 120 minutes, pH7.4, pH5.5 and pH4.0, 37°C; LC-MS cleavage patterns; representative of two experiments

Compound | change of B57-KF11 cross-presentation (CTL response) upon inhibitor pretreatment, increase [1] | change of B57-KF11 CTL responses upon inhibitor pretreatment, decrease [2] | change of B57-TW10 CTL responses upon inhibitor pretreatment, decrease [2] | stability rate at pH4.0 relative to pH7.4 [3] | further results
CC[C@H](C)[C@H](NC(=O)[C@H]([C@@H](C)CC)N(C)C(C)=O)C(=O)N[C@H](C(=O)N[C@@H](CC(C)C)C(=O)[C@@]1(C)CO1)[C@@H](C)O [epoxomicin] | 11 fold | 2 fold | 3 fold |  | 
ISPRTLNAW [B57-ISW9] |  |  |  | dramatically reduced | 
CC(C)C[C@H](NC(=O)[C@H]1O[C@@H]1C(=O)O)C(=O)NCCCCN=C(N)N [E64] | no effect | did not affect | did not affect |  | change of B57-ISW9 cross-presentation (CTL response) upon inhibitor pretreatment, increase [1]: no effect; change of B57-ISW9 cross-presentation upon inhibitor pretreatment [2]: did not affect
CC[C@H](C)[C@H](NC(=O)[C@@H](NC(=O)[C@H](CCC(=O)O)NC(=O)[C@@H]1CCCN1C(=O)[C@H](CO)NC(=O)[C@H](Cc1ccccc1)NC(=O)[C@H](C)NC(=O)[C@@H](N)CCCCN)C(C)C)C(=O)N1CCC[C@H]1C(=O)N[C@@H](CCSC)C(=O)N[C@@H](Cc1ccccc1)C(=O)O [B57-KF11] |  |  |  | dramatically reduced | half-life ([3]; pH 4, degradation buffer pH4.0, 37°C, read-out: half-life at pH4.0): 1.9 min; half-life ([3]; pH 7.4, degradation buffer pH7.4, 37°C, read-out: half-life at pH7.4): 20 min; fold faster degraded at pH4.0 than at pH7.4 ([3]; immature DC whole cell extract, 37°C, ratio of half-lives): 10 fold
FSPEVIPMF [B57-FF9] |  |  |  | dramatically reduced | stability rate compared with overlapping epitope B57-KF11 ([4]; extracts of DCs and Møs, RP-HPLC, three independent experiments): comparable
CC[C@H](C)[C@H](NC(=O)[C@H](C)N)C(=O)N[C@@H](Cc1ccccc1)C(=O)N[C@@H](CCC(N)=O)C(=O)N[C@@H](CO)C(=O)N[C@@H](CO)C(=O)N[C@@H](CCSC)C(=O)N[C@H](C(=O)N[C@@H](CCCCN)C(=O)O)[C@@H](C)O [A11-ATK9] |  |  |  | dramatically reduced | 
CC[C@H](C)[C@H](NC(=O)[C@H](CCCCN)NC(=O)[C@H](CCC(=O)O)NC(=O)[C@H](Cc1c[nH]c2ccccc12)NC(=O)[C@@H](N)CCCNC(=N)N)C(=O)N[C@@H](CCCNC(=N)N)C(=O)N[C@@H](CC(C)C)C(=O)N[C@@H](CCCNC(=N)N)C(=O)N1CCC[C@H]1C(=O)NCC(=O)NCC(=O)N[C@@H](CCCCN)C(=O)N[C@@H](CCCCN)C(=O)N[C@@H](CCCCN)C(=O)N[C@@H](Cc1ccc(O)cc1)C(=O)N[C@@H](CCCCN)C(=O)N[C@@H](CC(C)C)C(=O)O [HIV-1 p17-derived peptide] |  |  |  |  | degradation of A03-RK9 within the p17-derived peptide [5]: minimal degradation
CC(C)C[C@@H](C=O)NC(=O)[C@H](CC(C)C)NC(=O)[C@H](CC(C)C)NC(=O)OCc1ccccc1 [MG132] (Cbz-Leu-Leu-Leu-aldehyde) | 4 fold | 2 fold | 3 fold |  | change of B57-TW10-specific CTL responses upon inhibitor pretreatment, decrease ([1]; immature DCs pre-incubated 45 minutes with 10μM MG132 before p24 protein): approximately 3 fold; change of B57-ISW9 cross-presentation (CTL response) upon inhibitor pretreatment, increase [1]: 43 fold; change of B57-ISW9 cross-presentation upon inhibitor pretreatment [2]: not affected
CC[C@H](C)[C@H](NC(=O)[C@H](CCC(N)=O)NC(=O)[C@H](CCC(=O)O)NC(=O)[C@H](CCC(N)=O)NC(=O)[C@H](CC(C)C)NC(=O)[C@H](CC(N)=O)NC(=O)[C@H](CO)NC(=O)[C@@H](N)[C@@H](C)O)C(=O)N[C@@H](C)C(=O)N[C@@H](Cc1c[nH]c2ccccc12)C(=O)O |  |  |  |  | cytosolic and lysosomal stability relative to B57-TW10, fold reduced ([4]; 1nmol peptide, 15μg immature DC or Mø extracts, pH7.4 and pH4.0 (both compartments), RP-HPLC stability rate, mean of three independent experiments): 7- to 8 fold
